Columns and labels:
SUP-T1 = experiment: cells; assay type: functional, cell-based; settings: Homo sapiens;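 also: growth inhibition of human SUP-T1 cells, read out as cell viability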
Description: SANGER: Inhibition of human SUP-T1 cell growth in a cell viability assay.

PF-382 = experiment: cells; assay type: functional, cell-based; settings: Homo sapiens
Description: SANGER: Inhibition of human PF-382 cell growth in a cell viability assay.

SK-MM-2 = experiment: cells; assay type: functional, cell-based; settings: Homo sapiens;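 also: growth inhibition of human SK-MM-2 cells, read out with a cell viability assay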
Description: SANGER: Inhibition of human SK-MM-2 cell growth in a cell viability assay.

SIMA = experiment: cells; assay type: functional, cell-based, Homo sapiens; settings: Homo sapiens, SIMA;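 also: growth inhibition of SIMA cells, measured with a cell viability readout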
Description: SANGER: Inhibition of human SIMA cell growth in a cell viability assay.

NCI-H889 = experiment: cells; assay type: functional, cell-based; settings: Homo sapiens;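 also: cell growth inhibition of the cell line, read out with a viability assay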
Description: SANGER: Inhibition of human NCI-H889 cell growth in a cell viability assay.

Raji = experiment: cells; assay type: functional, cell-based; settings: Homo sapiens;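 also: cell viability assay measuring inhibition of Raji cell growth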
Description: SANGER: Inhibition of human Raji cell growth in a cell viability assay.

EM-2 = experiment: cells; assay type: functional, cell-based; settings: Homo sapiens;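 also: growth inhibition of EM-2 cells, read out with a cell viability assay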
Description: SANGER: Inhibition of human EM-2 cell growth in a cell viability assay.

EB-3 = experiment: cells; assay type: functional, cell-based; settings: Homo sapiens;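 also: human EB-3 cells, growth inhibition read out via a cell viability assay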
Description: SANGER: Inhibition of human EB-3 cell growth in a cell viability assay.

ST486 = experiment: SANGER: Inhibition of human ST486 cell growth in a cell viability assay.; assay type: functional, cell-based
NCI-H719 = experiment: cells; assay type: functional, cell-based; settings: Homo sapiens;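 also: growth inhibition of the cultured cell line, read out with a viability assay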
Description: SANGER: Inhibition of human NCI-H719 cell growth in a cell viability assay.

LB996-RCC = experiment: cells; assay type: functional, cell-based; settings: Homo sapiens
Description: SANGER: Inhibition of human LB996-RCC cell growth in a cell viability assay.

DMS-153 = experiment: cells; assay type: functional, cell-based; settings: Homo sapiens
Description: SANGER: Inhibition of human DMS-153 cell growth in a cell viability assay.

NCI-H187 = experiment: cells; assay type: functional, cell-based; settings: Homo sapiens;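 also: growth inhibition of NCI-H187 cells, read out as cell viability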
Description: SANGER: Inhibition of human NCI-H187 cell growth in a cell viability assay.

OPM-2 = experiment: cells; assay type: functional, cell-based; settings: Homo sapiens;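 also: growth of OPM-2 cells measured with a viability assay, IC50 for suppression of proliferation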
Description: SANGER: Inhibition of human OPM-2 cell growth in a cell viability assay.

NB6 = experiment: cells; assay type: functional, cell-based, Homo sapiens; settings: Homo sapiens, NB6;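 also: growth inhibition of NB6 cells, read out by a cell viability assay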
Description: SANGER: Inhibition of human NB6 cell growth in a cell viability assay.

REH = experiment: cells; assay type: functional, cell-based; settings: Homo sapiens;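 also: growth inhibition of REH cells determined with a cell viability read-out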
Description: SANGER: Inhibition of human REH cell growth in a cell viability assay.

NCI-H716 = experiment: cells; assay type: functional, cell-based; settings: Homo sapiens;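 also: growth inhibition of human NCI-H716 cells, measured by a cell viability assay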
Description: SANGER: Inhibition of human NCI-H716 cell growth in a cell viability assay.

BL-70 = experiment: SANGER: Inhibition of human BL-70 cell growth in a cell viability assay.; assay type: functional, cell-based
ES1 = experiment: cells; assay type: functional, cell-based, Homo sapiens; settings: Homo sapiens, ES1;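 also: growth inhibition of ES1 cells, read out with a cell viability assay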
Description: SANGER: Inhibition of human ES1 cell growth in a cell viability assay.

LC-1F = experiment: cells; assay type: functional, cell-based; settings: Homo sapiens;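 also: growth inhibition of human LC-1F cells, read out with a cell viability assay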
Description: SANGER: Inhibition of human LC-1F cell growth in a cell viability assay.

Calu-6 = experiment: cells; assay type: functional, cell-based, Homo sapiens; settings: Homo sapiens, Calu-6;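 also: growth of human Calu-6 cells, read out by a cell viability assay, IC50 marking inhibition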
Description: SANGER: Inhibition of human Calu-6 cell growth in a cell viability assay.

YT = experiment: cells; assay type: functional, cell-based; settings: Homo sapiens
Description: SANGER: Inhibition of human YT cell growth in a cell viability assay.

MV4-11 = experiment: cells; assay type: functional, cell-based, MV-4-11; settings: Homo sapiens;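 also: cell viability readout measuring growth inhibition of human MV-4-11 cells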
Description: SANGER: Inhibition of human MV-4-11 cell growth in a cell viability assay.

EVSA-T = experiment: cells; assay type: functional, cell-based, Homo sapiens; settings: Homo sapiens, EVSA-T;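 also: growth inhibition of EVSA-T cells, read out with a cell viability assay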
Description: SANGER: Inhibition of human EVSA-T cell growth in a cell viability assay.

J-RT3-T3-5 = experiment: cells; assay type: functional, cell-based; settings: Homo sapiens;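 also: cell viability assay measuring growth inhibition of human J-RT3-T3-5 cells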
Description: SANGER: Inhibition of human J-RT3-T3-5 cell growth in a cell viability assay.

NB5 = experiment: cells; assay type: functional, cell-based, Homo sapiens; settings: Homo sapiens, NB5;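 also: growth inhibition of NB5 cells, read out as cell viability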
Description: SANGER: Inhibition of human NB5 cell growth in a cell viability assay.

IMR-5 = experiment: cells; assay type: functional, cell-based; settings: Homo sapiens;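 also: growth inhibition of human IMR-5 cells, read out with a cell viability assay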
Description: SANGER: Inhibition of human IMR-5 cell growth in a cell viability assay.

EW-22 = experiment: cells; assay type: functional, cell-based; settings: Homo sapiens;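 also: growth inhibition of the EW-22 cell line, measured with a cell viability readout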
Description: SANGER: Inhibition of human EW-22 cell growth in a cell viability assay.

CCRF-CEM = experiment: cells; assay type: functional, cell-based; settings: Homo sapiens;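 also: inhibition of CCRF-CEM cell growth, measured by a cell viability assay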
Description: SANGER: Inhibition of human CCRF-CEM cell growth in a cell viability assay.

CHP-126 = experiment: cells; assay type: functional, cell-based; settings: Homo sapiens
Description: SANGER: Inhibition of human CHP-126 cell growth in a cell viability assay.

HEL = experiment: cells; assay type: functional, cell-based, Homo sapiens; settings: Homo sapiens, HEL;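 also: growth inhibition of HEL cells, read out with a cell viability assay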
Description: SANGER: Inhibition of human HEL cell growth in a cell viability assay.

KMS-12-PE = experiment: cells; assay type: functional, cell-based; settings: Homo sapiens;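 also: growth inhibition of human KMS-12-PE cells, measured with a cell viability assay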
Description: SANGER: Inhibition of human KMS-12-PE cell growth in a cell viability assay.

CPC-N = experiment: cells; assay type: functional, cell-based; settings: Homo sapiens;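 also: growth inhibition of CPC-N cells, with a cell viability assay as the readout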
Description: SANGER: Inhibition of human CPC-N cell growth in a cell viability assay.

NALM-6 = experiment: cells; assay type: functional, cell-based; settings: Homo sapiens;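 also: growth inhibition of NALM-6 cells, read out with a cell viability assay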
Description: SANGER: Inhibition of human NALM-6 cell growth in a cell viability assay.

NCI-H1694 = experiment: cells; assay type: functional, cell-based; settings: Homo sapiens;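 also: cell viability assay measuring inhibition of growth in human NCI-H1694 cells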
Description: SANGER: Inhibition of human NCI-H1694 cell growth in a cell viability assay.

NCI-H1882 = experiment: cells; assay type: functional, cell-based; settings: Homo sapiens;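 also: growth inhibition of the cell line, determined with a viability assay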
Description: SANGER: Inhibition of human NCI-H1882 cell growth in a cell viability assay.

HCC2157 = experiment: cells; assay type: functional, cell-based; settings: Homo sapiens;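 also: growth inhibition of the cancer cell line, read out as cell viability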
Description: SANGER: Inhibition of human HCC2157 cell growth in a cell viability assay.

LB831-BLC = experiment: cells; assay type: functional, cell-based, Homo sapiens; settings: Homo sapiens, LB831-BLC;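 also: growth inhibition of LB831-BLC cells, read out with a cell viability assay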
Description: SANGER: Inhibition of human LB831-BLC cell growth in a cell viability assay.

NCI-H2171 = experiment: cells; assay type: functional, cell-based; settings: Homo sapiens;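 also: growth inhibition of human NCI-H2171 cells, read out by a cell viability assay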
Description: SANGER: Inhibition of human NCI-H2171 cell growth in a cell viability assay.

GDM-1 = experiment: cells; assay type: functional, cell-based; settings: Homo sapiens;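 also: cell viability readout used to measure growth inhibition of human GDM-1 cells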
Description: SANGER: Inhibition of human GDM-1 cell growth in a cell viability assay.

SF-539 = experiment: cells; assay type: functional, cell-based, Homo sapiens; settings: Homo sapiens, SF-539;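 also: Read-out is a cell viability assay, with IC50 reflecting inhibition of cell growth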
Description: SANGER: Inhibition of human SF539 cell growth in a cell viability assay.

NCI-H2081 = experiment: cells; assay type: functional, cell-based; settings: Homo sapiens;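 also: growth inhibition of human NCI-H2081 cells, read out with a cell viability assay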
Description: SANGER: Inhibition of human NCI-H2081 cell growth in a cell viability assay.

C=C1C(=O)O[C@@H]2C3O[C@]3(C)CC/C=C(\C)CC[C@@H]12 (stereo partly specified)
IC50 (SUP-T1): > 5 µM
IC50 (PF-382): > 5 µM
IC50 (SK-MM-2): > 5 µM
IC50 (SIMA): > 5 µM
IC50 (NCI-H889): > 5 µM
IC50 (Raji): > 5 µM
IC50 (EM-2): > 5 µM
IC50 (EB-3): > 5 µM
IC50 (ST486): > 5 µM
IC50 (NCI-H719): > 5 µM
IC50 (LB996-RCC): > 5 µM
IC50 (DMS-153): > 5 µM
IC50 (NCI-H187): > 5 µM
IC50 (OPM-2): > 5 µM
IC50 (NB6): > 5 µM
IC50 (REH): > 5 µM
IC50 (NCI-H716): > 5 µM
IC50 (BL-70): > 5 µM
IC50 (ES1): > 5 µM
IC50 (LC-1F): > 5 µM
IC50 (Calu-6): > 5 µM
IC50 (YT): > 5 µM
IC50 (MV4-11): > 5 µM
IC50 (EVSA-T): > 5 µM
IC50 (J-RT3-T3-5): > 5 µM
IC50 (NB5): > 5 µM
IC50 (IMR-5): > 5 µM
IC50 (EW-22): > 5 µM
IC50 (CCRF-CEM): > 5 µM
IC50 (CHP-126): > 5 µM
IC50 (HEL): 3.18 µM
IC50 (KMS-12-PE): > 5 µM
IC50 (CPC-N): > 5 µM
IC50 (NALM-6): > 5 µM
IC50 (NCI-H1694): > 5 µM
IC50 (NCI-H1882): > 5 µM
IC50 (HCC2157): > 5 µM
IC50 (LB831-BLC): > 5 µM
IC50 (NCI-H2171): > 5 µM
IC50 (GDM-1): > 5 µM
IC50 (SF-539): 2.47 µM
IC50 (NCI-H2081): > 5 µM

CC1=C2C[C@H]3[C@@H](CC=C4C[C@@H](O)CC[C@@]43C)[C@@H]2CC[C@]12O[C@@H]1C[C@H](C)CN[C@H]1[C@H]2C [CYCLOPAMINE]
IC50 (SUP-T1): > 16 µM
IC50 (PF-382): > 16 µM
IC50 (SK-MM-2): > 16 µM
IC50 (SIMA): > 16 µM
IC50 (NCI-H889): > 16 µM
IC50 (Raji): > 16 µM
IC50 (EM-2): > 16 µM
IC50 (EB-3): > 16 µM
IC50 (ST486): > 16 µM
IC50 (NCI-H719): > 16 µM
IC50 (LB996-RCC): > 16 µM
IC50 (DMS-153): > 16 µM
IC50 (NCI-H187): > 16 µM
IC50 (OPM-2): > 16 µM
IC50 (NB6): > 16 µM
IC50 (REH): > 16 µM
IC50 (NCI-H716): > 16 µM
IC50 (BL-70): > 16 µM
IC50 (ES1): > 16 µM
IC50 (LC-1F): > 16 µM
IC50 (Calu-6): > 16 µM
IC50 (YT): > 16 µM
IC50 (MV4-11): > 16 µM
IC50 (EVSA-T): > 16 µM
IC50 (J-RT3-T3-5): > 16 µM
IC50 (NB5): > 16 µM
IC50 (IMR-5): > 16 µM
IC50 (CCRF-CEM): > 16 µM
IC50 (CHP-126): > 16 µM
IC50 (HEL): > 16 µM
IC50 (KMS-12-PE): > 16 µM
IC50 (CPC-N): > 16 µM
IC50 (NALM-6): > 16 µM
IC50 (NCI-H1694): > 16 µM
IC50 (NCI-H1882): > 16 µM
IC50 (HCC2157): > 16 µM
IC50 (LB831-BLC): > 16 µM
IC50 (NCI-H2171): > 16 µM
IC50 (GDM-1): > 16 µM
IC50 (SF-539): > 16 µM
IC50 (NCI-H2081): > 16 µM

CCc1nc(N)nc(N)c1-c1ccc(Cl)cc1 [PYRIMETHAMINE]
IC50 (SUP-T1): > 20 µM
IC50 (PF-382): 14.6 µM
IC50 (SK-MM-2): > 20 µM
IC50 (SIMA): > 20 µM
IC50 (NCI-H889): > 20 µM
IC50 (Raji): > 20 µM
IC50 (EM-2): 12.4 µM
IC50 (EB-3): > 20 µM
IC50 (ST486): 9.31 µM
IC50 (NCI-H719): > 20 µM
IC50 (LB996-RCC): > 20 µM
IC50 (DMS-153): > 20 µM
IC50 (NCI-H187): > 20 µM
IC50 (OPM-2): > 20 µM
IC50 (NB6): > 20 µM
IC50 (REH): > 20 µM
IC50 (NCI-H716): > 20 µM
IC50 (BL-70): 14.6 µM
IC50 (ES1): 0.123 µM
IC50 (LC-1F): > 20 µM
IC50 (Calu-6): > 20 µM
IC50 (YT): > 20 µM
IC50 (MV4-11): 11.4 µM
IC50 (EVSA-T): > 20 µM
IC50 (J-RT3-T3-5): 2.22 µM
IC50 (NB5): > 20 µM
IC50 (IMR-5): > 20 µM
IC50 (EW-22): > 20 µM
IC50 (CCRF-CEM): 9.39 µM
IC50 (CHP-126): > 20 µM
IC50 (HEL): 2.67 µM
IC50 (KMS-12-PE): > 20 µM
IC50 (CPC-N): > 20 µM
IC50 (NALM-6): 19.8 µM
IC50 (NCI-H1694): > 20 µM
IC50 (NCI-H1882): > 20 µM
IC50 (HCC2157): > 20 µM
IC50 (LB831-BLC): > 20 µM
IC50 (NCI-H2171): > 20 µM
IC50 (GDM-1): > 20 µM
IC50 (SF-539): 2.55 µM
IC50 (NCI-H2081): > 20 µM

O=C(/C=C/c1ccccc1)NC(NC(=S)Nc1cccc2cccnc12)C(Cl)(Cl)Cl (stereo unspecified) [SALUBRINAL]
IC50 (SUP-T1): > 16 µM
IC50 (PF-382): > 16 µM
IC50 (SK-MM-2): > 16 µM
IC50 (SIMA): > 16 µM
IC50 (NCI-H889): > 16 µM
IC50 (Raji): > 16 µM
IC50 (EM-2): > 16 µM
IC50 (EB-3): 9.63 µM
IC50 (ST486): 8.54 µM
IC50 (NCI-H719): > 16 µM
IC50 (LB996-RCC): > 16 µM
IC50 (DMS-153): > 16 µM
IC50 (NCI-H187): > 16 µM
IC50 (OPM-2): > 16 µM
IC50 (NB6): > 16 µM
IC50 (REH): > 16 µM
IC50 (NCI-H716): > 16 µM
IC50 (BL-70): > 16 µM
IC50 (ES1): > 16 µM
IC50 (LC-1F): > 16 µM
IC50 (Calu-6): > 16 µM
IC50 (YT): > 16 µM
IC50 (MV4-11): > 16 µM
IC50 (EVSA-T): 12.9 µM
IC50 (J-RT3-T3-5): 14.7 µM
IC50 (NB5): > 16 µM
IC50 (IMR-5): 13.8 µM
IC50 (CCRF-CEM): > 16 µM
IC50 (CHP-126): > 16 µM
IC50 (HEL): 10.6 µM
IC50 (KMS-12-PE): > 16 µM
IC50 (CPC-N): > 16 µM
IC50 (NALM-6): 13.1 µM
IC50 (NCI-H1694): > 16 µM
IC50 (NCI-H1882): > 16 µM
IC50 (HCC2157): > 16 µM
IC50 (LB831-BLC): > 16 µM
IC50 (NCI-H2171): > 16 µM
IC50 (GDM-1): > 16 µM
IC50 (SF-539): > 16 µM
IC50 (NCI-H2081): > 16 µM

— ChEMBL document CHEMBL1201861, “Genomics of Drug Sensitity in Cancer screening data, Wellcome Trust Sanger Institute”
